The supplement of paper PMC8612539
Values after ≈ are worked out from the molar mass of the structure shown.

Legend:
Enterococcus spp. = assay: minimum inhibitory concentration (MIC)
Method: (§1)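 Broth microdilution MIC (Sensititre BOPO7F bovine plate, CLSI methods) of 19 antimicrobials against field isolates of P. multocida, M. haemolytica, H. somni (deep nasopharyngeal swabs) and E. coli, Enterococcus spp. (rectal swabs) from weaned dairy heifers. Incubation 16-24 h at 35 C. MIC is the lowest concentration preventing visible growth. Values with <= or > lie at the tested range limits. Trimethoprim-sulfamethoxazole is given as the trimethoprim component of a 1:19 mixture.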

Mannheimia haemolytica = assay: minimum inhibitory concentration (MIC)
Method: as §1

CC1(C)S[C@@H]2[C@H](NC(=O)[C@H](N)c3ccccc3)C(=O)N2[C@H]1C(=O)O [Ampicillin]
minimum inhibitory concentration [µg/mL]
Conditions	Enterococcus spp.	Mannheimia haemolytica
isolate (source animal id): 2	≤ 0.25	–
isolate (source animal id): 8	–	≤ 0.25
isolate (source animal id): 13	–	≤ 0.25
isolate (source animal id): 18	–	≤ 0.25
isolate (source animal id): 21	–	≤ 0.25
isolate (source animal id): 25	–	≤ 0.25
isolate (source animal id): 27	–	≤ 0.25
isolate (source animal id): 28	–	> 16
isolate (source animal id): 30	–	≤ 0.25
isolate (source animal id): 31	–	> 16
isolate (source animal id): 32	–	≤ 0.25
isolate (source animal id): 34	–	≤ 0.25
isolate (source animal id): 35	1 (≈ 2.86 µM)	–
isolate (source animal id): 36	–	≤ 0.25
isolate (source animal id): 37	–	≤ 0.25
isolate (source animal id): 40	–	≤ 0.25
isolate (source animal id): 41	–	≤ 0.25
isolate (source animal id): 42	1 (≈ 2.86 µM)	–
isolate (source animal id): 43	–	≤ 0.25
isolate (source animal id): 44	1 (≈ 2.86 µM)	–
isolate (source animal id): 46	–	≤ 0.25
isolate (source animal id): 49	–	≤ 0.25
isolate (source animal id): 50	–	> 16
isolate (source animal id): 51	–	≤ 0.25
isolate (source animal id): 52	–	≤ 0.25
isolate (source animal id): 53	–	≤ 0.25
isolate (source animal id): 55	–	≤ 0.25
isolate (source animal id): 56	–	≤ 0.25
isolate (source animal id): 57	–	≤ 0.25
isolate (source animal id): 79	1 (≈ 2.86 µM)	–
isolate (source animal id): 88	≤ 0.25	–
isolate (source animal id): 91	≤ 0.25	–
isolate (source animal id): 92	0.5 (≈ 1.43 µM)	–
isolate (source animal id): 100	–	≤ 0.25
isolate (source animal id): 103	–	≤ 0.25
isolate (source animal id): 107	–	≤ 0.25
isolate (source animal id): 108	–	≤ 0.25
isolate (source animal id): 111	≤ 0.25	–
isolate (source animal id): 112	–	≤ 0.25
isolate (source animal id): 113	–	≤ 0.25
isolate (source animal id): 121	–	> 16
isolate (source animal id): 122	1 (≈ 2.86 µM)	≤ 0.25
isolate (source animal id): 123	1 (≈ 2.86 µM)	0.5 (≈ 1.43 µM)
isolate (source animal id): 126	–	> 16
isolate (source animal id): 133	0.5 (≈ 1.43 µM)	≤ 0.25
isolate (source animal id): 135	–	≤ 0.25
isolate (source animal id): 138	–	> 16
isolate (source animal id): 141	–	≤ 0.25
isolate (source animal id): 142	–	≤ 0.25
isolate (source animal id): 145	–	≤ 0.25
isolate (source animal id): 149	–	≤ 0.25
isolate (source animal id): 151	–	≤ 0.25
isolate (source animal id): 152	–	≤ 0.25
isolate (source animal id): 154	–	≤ 0.25
isolate (source animal id): 158	1 (≈ 2.86 µM)	–
isolate (source animal id): 159	–	16 (≈ 45.8 µM)
isolate (source animal id): 162	–	8 (≈ 22.9 µM)
isolate (source animal id): 168	1 (≈ 2.86 µM)	–
isolate (source animal id): 169	1 (≈ 2.86 µM)	–
isolate (source animal id): 170	–	> 16
isolate (source animal id): 171	0.5 (≈ 1.43 µM)	≤ 0.25
isolate (source animal id): 172	–	> 16
isolate (source animal id): 173	–	> 16
isolate (source animal id): 175	1 (≈ 2.86 µM)	–
isolate (source animal id): 177	1 (≈ 2.86 µM)	–
isolate (source animal id): 179	–	> 16
isolate (source animal id): 180	–	> 16
isolate (source animal id): 181	1 (≈ 2.86 µM)	–
isolate (source animal id): 182	2 (≈ 5.72 µM)	–
isolate (source animal id): 183	1 (≈ 2.86 µM)	> 16
isolate (source animal id): 186	–	> 16
isolate (source animal id): 187	2 (≈ 5.72 µM)	> 16
isolate (source animal id): 188	–	> 16
isolate (source animal id): 190	2 (≈ 5.72 µM)	≤ 0.25
isolate (source animal id): 191	–	> 16
isolate (source animal id): 192	–	≤ 0.25
isolate (source animal id): 194	0.5 (≈ 1.43 µM)	–
isolate (source animal id): 195	1 (≈ 2.86 µM)	–
isolate (source animal id): 197	0.5 (≈ 1.43 µM)	–
isolate (source animal id): 201	–	> 16
isolate (source animal id): 202	–	> 16
isolate (source animal id): 209	–	> 16
isolate (source animal id): 211	1 (≈ 2.86 µM)	> 16
isolate (source animal id): 214	0.5 (≈ 1.43 µM)	–
isolate (source animal id): 220	–	> 16
isolate (source animal id): 221	–	16 (≈ 45.8 µM)
isolate (source animal id): 222	0.5 (≈ 1.43 µM)	–
isolate (source animal id): 223	0.5 (≈ 1.43 µM)	> 16
isolate (source animal id): 228	1 (≈ 2.86 µM)	–
isolate (source animal id): 230	2 (≈ 5.72 µM)	–
isolate (source animal id): 233	–	> 16
isolate (source animal id): 235	1 (≈ 2.86 µM)	–
isolate (source animal id): 236	0.5 (≈ 1.43 µM)	–
isolate (source animal id): 237	–	≤ 0.25
isolate (source animal id): 239	0.5 (≈ 1.43 µM)	–
isolate (source animal id): 241	2 (≈ 5.72 µM)	> 16
isolate (source animal id): 244	0.5 (≈ 1.43 µM)	–
isolate (source animal id): 246	1 (≈ 2.86 µM)	–
isolate (source animal id): 247	2 (≈ 5.72 µM)	–
isolate (source animal id): 250	0.5 (≈ 1.43 µM)	–
isolate (source animal id): 252	1 (≈ 2.86 µM)	≤ 0.25
isolate (source animal id): 253	–	≤ 0.25
isolate (source animal id): 259	–	16 (≈ 45.8 µM)
isolate (source animal id): 260	–	≤ 0.25
isolate (source animal id): 262	–	> 16
isolate (source animal id): 268	≤ 0.25	–
isolate (source animal id): 282	1 (≈ 2.86 µM)	> 16
isolate (source animal id): 285	1 (≈ 2.86 µM)	–
isolate (source animal id): 287	–	≤ 0.25
isolate (source animal id): 288	–	≤ 0.25
isolate (source animal id): 289	≤ 0.25	–
isolate (source animal id): 290	≤ 0.25	–
isolate (source animal id): 291	–	≤ 0.25
isolate (source animal id): 293	–	≤ 0.25
isolate (source animal id): 296	≤ 0.25	–
isolate (source animal id): 298	≤ 0.25	≤ 0.25
isolate (source animal id): 299	–	≤ 0.25
isolate (source animal id): 300	–	≤ 0.25
isolate (source animal id): 301	≤ 0.25	–
isolate (source animal id): 302	–	≤ 0.25
isolate (source animal id): 304	–	≤ 0.25
isolate (source animal id): 306	–	≤ 0.25
isolate (source animal id): 308	–	≤ 0.25
isolate (source animal id): 309	–	≤ 0.25
isolate (source animal id): 310	1 (≈ 2.86 µM)	–
isolate (source animal id): 313	–	≤ 0.25
isolate (source animal id): 318	–	≤ 0.25
isolate (source animal id): 320	≤ 0.25	≤ 0.25
isolate (source animal id): 321	–	≤ 0.25
isolate (source animal id): 323	–	≤ 0.25
isolate (source animal id): 324	–	≤ 0.25
isolate (source animal id): 326	–	≤ 0.25
isolate (source animal id): 328	–	≤ 0.25
isolate (source animal id): 329	–	≤ 0.25
isolate (source animal id): 331	≤ 0.25	–
isolate (source animal id): 333	≤ 0.25	≤ 0.25
isolate (source animal id): 335	–	≤ 0.25
isolate (source animal id): 338	–	≤ 0.25
isolate (source animal id): 341	0.5 (≈ 1.43 µM)	–
